Source: US20240261274A1, “TREATMENT OF MYC-DRIVEN CANCERS WITH GSPT1 DEGRADERS” (MONTE ROSA THERAPEUTICS, INC., priority 2021, published 2024)

How the values were obtained:
NSCLC cell lines = test: Viability assay, 72 hr CellTiter Glo, NSCLC cell line panel (Compound 345); assay type: cell-based; settings: panel of NSCLC cell lines
Protocol: EC50 scores for Compound 345 were measured in a panel of NSCLC cell lines. Each cell line was scored for NSCLC biomarkers and EC50 values were plotted against NSCLC biomarker score. Results of this experiment are shown in the scatter plot of FIG. 11A. High N-Myc expressing cell lines were enriched in the lower right quadrant of the scatterplot, indicating high NSCLC biomarker scores and high sensitivity to Compound 345.
Viability assay: Compound 345 was tested in a panel of 156 lung cancer cell lines (including non small cell lung cancer (NSCLC) and small cell lung cancer (SCLC) cell lines and 46 lymphoma cell lines using a 72 hr CellTiter Glo assay format. Cells were sub-cultured as recommended by the providers (ATCC, DSMZ) and incubated at 37° C., 5% CO2. All cells were authenticated and confirmed by Short Tandem Repeat (STR) profiling. Briefly, each lung cancer cell line was preferentially seeded in 384-well plates (100 μL/well) at a density previously determined to be in log growth phase 72 hour post-seeding (typically in the 400-2400 cells/well range). […] Cell viability was assessed using the CellTiter-Glo® 2.0 Assay as recommended by the Manufacturer (Promega, Cat. No. G7558, Lot. No. 0000385738) and measurements performed on the EnSpire multimode plate reader (Perkin Elmer). […]

GSPT1 = GSPT1 (Homo sapiens, UniProt P15170+Q96SW2); test: GSPT1 degradation by western blotting in NSCLC cell lines (compound 210); assay type: cell-based; set-up: endogenous in cells; settings: NCI-H1155 and ABC-1 cells, six hours
Chain of GSPT1 (P15170 whole entry): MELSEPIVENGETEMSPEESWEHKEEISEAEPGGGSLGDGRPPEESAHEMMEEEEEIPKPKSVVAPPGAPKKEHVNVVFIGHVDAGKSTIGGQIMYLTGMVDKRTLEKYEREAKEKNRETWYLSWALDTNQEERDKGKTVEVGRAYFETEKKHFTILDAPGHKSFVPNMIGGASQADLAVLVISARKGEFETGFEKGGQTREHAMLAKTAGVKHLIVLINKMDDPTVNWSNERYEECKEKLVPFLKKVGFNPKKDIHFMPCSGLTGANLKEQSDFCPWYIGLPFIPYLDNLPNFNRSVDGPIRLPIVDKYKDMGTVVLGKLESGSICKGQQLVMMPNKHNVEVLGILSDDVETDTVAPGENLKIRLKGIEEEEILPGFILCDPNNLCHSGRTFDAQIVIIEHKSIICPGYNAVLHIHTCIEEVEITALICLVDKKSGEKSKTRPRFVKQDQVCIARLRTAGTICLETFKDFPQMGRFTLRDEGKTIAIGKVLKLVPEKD
Chain of GSPT1 (Q96SW2 whole entry): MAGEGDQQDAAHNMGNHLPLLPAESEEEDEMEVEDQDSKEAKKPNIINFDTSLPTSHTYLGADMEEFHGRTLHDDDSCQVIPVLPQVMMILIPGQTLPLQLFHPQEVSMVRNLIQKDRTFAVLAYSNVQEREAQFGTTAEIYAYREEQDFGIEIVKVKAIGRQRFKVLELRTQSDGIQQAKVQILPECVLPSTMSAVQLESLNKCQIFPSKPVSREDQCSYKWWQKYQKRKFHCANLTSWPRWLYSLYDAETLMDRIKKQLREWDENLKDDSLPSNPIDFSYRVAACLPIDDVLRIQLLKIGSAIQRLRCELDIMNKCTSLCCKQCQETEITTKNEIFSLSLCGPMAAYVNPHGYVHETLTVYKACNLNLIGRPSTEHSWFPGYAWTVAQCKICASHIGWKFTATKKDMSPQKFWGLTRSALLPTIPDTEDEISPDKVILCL
Chain of GSPT1 (Q16531 whole entry partner): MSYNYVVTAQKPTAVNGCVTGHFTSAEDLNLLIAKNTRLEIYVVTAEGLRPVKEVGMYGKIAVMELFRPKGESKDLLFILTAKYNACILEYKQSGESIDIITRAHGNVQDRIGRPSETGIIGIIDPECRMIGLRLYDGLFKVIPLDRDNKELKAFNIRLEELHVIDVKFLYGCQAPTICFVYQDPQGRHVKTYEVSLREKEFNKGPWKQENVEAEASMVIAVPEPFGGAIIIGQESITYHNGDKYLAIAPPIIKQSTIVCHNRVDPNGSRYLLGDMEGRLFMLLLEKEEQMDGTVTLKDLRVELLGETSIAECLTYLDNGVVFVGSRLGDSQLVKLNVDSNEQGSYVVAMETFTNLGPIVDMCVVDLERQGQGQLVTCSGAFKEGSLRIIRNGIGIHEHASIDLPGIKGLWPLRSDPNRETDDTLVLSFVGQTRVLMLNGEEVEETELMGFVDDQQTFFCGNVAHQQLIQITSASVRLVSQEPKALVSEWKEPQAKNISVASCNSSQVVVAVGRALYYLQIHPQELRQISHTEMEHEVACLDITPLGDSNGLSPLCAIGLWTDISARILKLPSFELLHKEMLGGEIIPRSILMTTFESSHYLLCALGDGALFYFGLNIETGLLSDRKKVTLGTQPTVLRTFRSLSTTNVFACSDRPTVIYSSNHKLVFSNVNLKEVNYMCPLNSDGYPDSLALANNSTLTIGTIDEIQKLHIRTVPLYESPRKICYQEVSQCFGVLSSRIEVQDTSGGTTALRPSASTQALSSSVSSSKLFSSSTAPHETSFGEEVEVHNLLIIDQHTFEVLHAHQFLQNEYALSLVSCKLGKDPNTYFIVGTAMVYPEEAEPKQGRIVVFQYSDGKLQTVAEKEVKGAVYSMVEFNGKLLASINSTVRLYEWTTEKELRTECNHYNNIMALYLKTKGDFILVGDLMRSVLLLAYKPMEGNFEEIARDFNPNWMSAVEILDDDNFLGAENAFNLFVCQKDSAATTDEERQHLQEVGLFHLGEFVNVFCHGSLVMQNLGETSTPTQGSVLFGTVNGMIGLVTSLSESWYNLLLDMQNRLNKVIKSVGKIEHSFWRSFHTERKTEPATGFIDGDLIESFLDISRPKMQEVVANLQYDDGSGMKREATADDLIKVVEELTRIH
Protocol: The anti-proliferative activity of compound 210 was tested on representative N-Myc high and N-Myc low cell lines (NCI-H1155, ABC-1 and EBC-1, NCI-H2023, respectively) following treatment with compound for 72 hours. Cells were sub-cultures as recommended by the providers (ATCC, DSMZ) and incubated at 37° C., 5% CO2. All cells were authenticated and confirmed by Short Tandem Repeat (STR) profiling. Briefly, cells were seeded to the appropriate density to allow logarithmic growth over the assay period in 96-well opaque-walled clear bottom plates (from Corning, Cat. No. 3903, Lot. No. 16419061; 100 μL total volume) and incubated overnight. […] Cell viability was assessed using the CellTiter-Glo assay kit as recommended by the Manufacturer (Promega, Cat. No. G7558, Lot. No. 0000385738) and measurements performed on the EnSpire multimode plate reader (Perkin Elmer). EC50 values were determined using Prism8 (GraphPad) and the asymmetric (five-parameter) equation and least squares fit. GSPT1 levels were assessed in the NCI-H1155 and ABC-1 cell lines by densitometry analysis following treatment with compound 210 for 6 hours and western blotting analysis. […] For chemiluminescence and colorimetric signals “optimal automatic exposure” settings (3×3 binning) were employed while fluorescence was detected using 1-4 seconds exposure time to achieve best GAPDH signals and avoid overexposure. […]

| Compound | cell viability in Myc-driven and non-Myc-driven NSCLC (NSCLC cell lines) | extent of GSPT1 degradation (GSPT1) |
| --- | --- | --- |
| O=C1CCC(N2Cc3ccc(COC(=O)Nc4cc(OC(F)(F)F)ccc4F)cc3C2=O)C(=O)N1 (centres unmarked) [Compound 345, (2-(2,6-dioxopiperidin-3-yl)-3-oxoisoindolin-5-yl)methyl(2-fluoro-5-(trifluoromethoxy)phenyl)carbamate] | cell viability was significantly reduced in only Myc-driven NSCLC |  |
| Cc1ccc(NC(=O)OCc2ccc3c(c2)C(=O)N(C2CCC(=O)NC2=O)C3)cc1Cl (centres unmarked) [Compound 210] |  | Complete degradation of GSPT1 |
